Reference: US20230026869A1, “CRYSTAL FORM OF NUCLEOPROTEIN INHIBITOR AND USE THEREOF” (CHIA TAI TIANQING PHARMACEUTICAL GROUP CO., LTD., priority 2019, published 2023)

Test: Study on solid stability of crystal form P (high temperature, high humidity, light, accelerated conditions; XRPD and HPLC)
Type: physicochemical
Experimental: In order to evaluate the solid stability of the crystal form P, the crystal form P was investigated for influence factors (high temperature, high humidity and light), stability under accelerated conditions and stability under intermediate conditions. The crystal form P was placed at high temperature (60° C., closed), high humidity (room temperature, 92.5% RH, sealing film wrapping and pricking 5-10 small holes) for 5 days and 10 days, then placed under visible light and ultraviolet light (a light-shielding control group was wrapped by tinfoil paper) according to ICH conditions (visible light illumination reached 1.2E+06 Lux hrs, ultraviolet light illumination reached 200 W·hrs/m) in a closed manner, and meanwhile, placed with stability under accelerated conditions ([…]/75% RH, sealing film wrapping and pricking 5-10 small holes) for 10 days and 1-2 months.

[1] = 92.5% RH, room temperature, Day 5
[2] = 92.5% RH, room temperature, Day 10
[3] = Light-shielding control group, taken simultaneously with the visible light + ultraviolet groups
[4] = Light-shielding control group, taken simultaneously with the visible light group
[5] = Visible + ultraviolet (ICH), illumination reaches 200 W · hrs/m^2
[6] = Visible light (ICH), illumination reaches 1.2E+06 Lux · hrs

In the case of `CC1(NC(=O)C(=O)c2c(Cl)c(C(=O)Nc3cc(F)c(F)c(F)c3)c3n2CCC3)CCC(CC(=O)O)CC1` (centres unmarked) [crystal form P], the Crystal form change (60° C., closed, Day 5) is reported as “Unchanged”, the Relative purity (60° C., closed, Day 5) is reported as 100.0% and the Crystal form change (60° C., closed, Day 10) is reported as “Unchanged”. The Relative purity (60° C., closed, Day 10) was 100.0%, the Crystal form change (60° C./75% RH, 1 month) was “Unchanged” and the Relative purity (60° C./75% RH, 1 month) was 100.0%. For the same compound, the Crystal form change (60° C./75% RH, Day 10) was “Unchanged”, the Relative purity (60° C./75% RH, Day 10) was 100.0% and the Crystal form change (60° C./75% RH, Month 2) was “Unchanged”. For the same compound, the Relative purity (60° C./75% RH, Month 2) was 100.0%, the Crystal form change [1] was “Unchanged” and the Relative purity [1] was 100.0%. For the same compound, the Crystal form change [2] was “Unchanged”, the Relative purity [2] was 100.0% and the Crystal form change [3] was “Unchanged”. For the same compound, the Relative purity [3] was 100.0%, the Crystal form change [4] was “Unchanged” and the Relative purity [4] was 99.9%. The Crystal form change [5] was “Unchanged”, the Relative purity [5] was 100.0% and the Crystal form change [6] was “Unchanged”. The Relative purity [6] was 100.0% and the Crystal form change (under all stability conditions) was “unchanged”.
